Measured values published in publication PMC11571207, “Stereorandomized Oncocins with Preserved Ribosome Binding and Antibacterial Activity” (Journal of Medicinal Chemistry, 2024).
Non-standard residues stand in square brackets, D forms with d. Residues, ends and D or L forms follow the SMILES beside them. Orn = NCCC[C@H](N)C(=O)O

Assays:
[1] = target: chaperone DnaK (His-tagged) (UniProt P0A6Y8); experiment: MST; 16 two-fold dilutions of L-Onc from a maximum of 100 μM, mixed 1:1 with 40 nM His-Tag-labeled DnaK; MST buffer (50 mM TRIS, 150 mM NaCl, 10 mM MgCl2, Tween 20 0.05%); Monolith NT.115; apparent
Sequence of chaperone DnaK (His-tagged) (P0A6Y8 whole entry): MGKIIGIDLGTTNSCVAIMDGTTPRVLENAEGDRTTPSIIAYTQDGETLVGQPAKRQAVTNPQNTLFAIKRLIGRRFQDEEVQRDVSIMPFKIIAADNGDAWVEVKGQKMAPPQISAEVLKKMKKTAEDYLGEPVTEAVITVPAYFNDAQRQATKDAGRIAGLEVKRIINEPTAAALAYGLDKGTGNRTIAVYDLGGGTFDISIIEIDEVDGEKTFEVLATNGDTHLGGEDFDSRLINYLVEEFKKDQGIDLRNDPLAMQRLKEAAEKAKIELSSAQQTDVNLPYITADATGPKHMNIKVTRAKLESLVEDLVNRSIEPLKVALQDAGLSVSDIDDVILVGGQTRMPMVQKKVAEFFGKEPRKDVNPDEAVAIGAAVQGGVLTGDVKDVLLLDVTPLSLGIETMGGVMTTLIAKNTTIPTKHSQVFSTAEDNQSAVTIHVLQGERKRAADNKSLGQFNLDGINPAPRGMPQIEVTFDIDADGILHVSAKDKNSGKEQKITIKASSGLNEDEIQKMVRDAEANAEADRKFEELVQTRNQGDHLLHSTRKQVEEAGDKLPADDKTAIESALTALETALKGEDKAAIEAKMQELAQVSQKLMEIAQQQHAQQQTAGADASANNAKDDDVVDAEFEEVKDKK

[2] = 25% (v/v) human serum in 0.1 M TRIS buffer pH 7.4, peptide 200 μM, 37 °C, 0/24/48/72 h, LC-MS UV trace vs 4-hydroxybenzoic acid internal standard, n = 3
Description: Human serum was diluted in 0.1 M filtered TRIS buffer pH 7.4 (50%, 1:1, v/v). Selected peptides were diluted in 0.1 M filtered TRIS buffer pH 7.4 to a concentration of 400 μM and 0.1 mg/mL 4- hydroxybenzoic acid was added as internal standard. Aliquots of peptide solution (300 μL) were added to aliquots of serum (300 μL) in sterile 1.5 mL Eppendorf tubes, to reach a peptide concentration of 200 μM and 25% (v/v) human serum during the assay. Samples, in triplicate, were incubated at 37 °C under gentle stirri ng (200 rpm). At different time points (0, 24, 48 and 72 hours), 100 μL of each sample was collected and quenched by precipitating serum proteins through the addition of (0.1 M) ZnSO4·7 H2O / ACN (1:1) (0.1 M, 100 μL) and cooling in ice bath for 10 minutes. Protein precipitates were pelleted under centrifugation (5 min at 14’000 rpm) and the supernatants were analysed by LC-MS. Peaks corresponding to the internal standard and the undegraded peptides were integrated from the area under the curves (AUC) of UV traces, with the ratio peptide/standard at t = 0 h as 100%.
Figure S7. Serum stability assay of the respective compound (200 μM), incubated with human serum (25% in TRIS buffer, 0.1 M, pH 7.4) at 37 °C. Aliquots were taken at different time (0 / 24 / 48 and 72 h). Undegraded peptide values determined by RP -HPLC analysis usi ng hydroxybenzoic acid as internal standard. Measured in triplicates and the data represent mean ± SD, n […]
(1 picture or pasted object on this page, not shown here)

human red blood cells = settings: red cells of human, 6 h

Row | Kd [1] [µM] | Compound | Serum stability (undegraded peptide) [2] | MHC human red blood cells (human red blood cells) [µg/mL]
1 | 30 | oncocin (L-oncocin) (peptide) | – | –
2 | – | CC[C@H](C)[C@H](NC(=O)[C@H](CCCN)NC(=O)[C@H](CCCNC(=N)N)NC(=O)[C@@H]1CCCN1C(=O)[C@@H]1CCCN1C(=O)[C@H](CCCNC(=N)N)NC(=O)[C@@H]1CCCN1C(=O)[C@H](CCCNC(=N)N)NC(=O)[C@@H]1CCCN1C(=O)[C@H](CC(C)C)NC(=O)[C@H](Cc1ccc(O)cc1)NC(=O)[C@@H]1CCCN1C(=O)[C@@H]1CCCN1C(=O)[C@H](CCCCN)NC(=O)[C@H](CC(=O)O)NC(=O)[C@@H](N)C(C)C)C(=O)N[C@@H](Cc1ccc(O)cc1)C(=O)N[C@@H](CC(N)=O)C(=O)N[C@@H](CCCN)C(N)=O [Onc72] (H-VDKPPYLPRPRPPR[Orn]IYN[Orn]-NH2) | essentially stable to degradation over 24 h | >1000
